Experiments:
[1] = plastic material free of PVC in direct contact; period of at least one year; cited from earlier work
[2] = Stability of aqueous oxaliplatin preparations in type I glass bottles under normal conditions (25° C., 60% relative humidity), total impurities by HPLC; assay type: physicochemical; details: for Level of impurity 5 years: 2 mg/ml, 50 ml bottle (ratio 0.12); for Level of impurity 5 years / Level of impurity 1 month / Level of impurity 2.5 months / Level of impurity 4 months / Level of impurity 5.5 months / Level of impurity 7 months / Level of impurity 10 months: 25° C./60% RH
Experimental: To carry out this trial, four series of bottles, consisting of a colorless type I glass, all of cylindrical shape but of different volumes, were used. Table 2 assembles, for each series of bottles, their so-called “useful” capacity, their so-called “brim” capacity, the inner diameter of these bottles, that of their neck and their height.
These bottles, used for the first time, were subjected beforehand to three cycles of washing and rinsing with hot water heated to about 50° C. and water of so-called PI grade before being dried.
Three oxaliplatin stock solutions at concentrations of 2 mg/ml, 5 mg/ml and 7 mg/ml, respectively, were prepared in the usual manner using PI grade water as solvent. No particular stabilizing agent was used.
Aliquots of these preparations were collected and then transferred under aseptic filling conditions into different bottles so as to reach the respective level corresponding to the heights indicated below. The bottles were then hermetically closed by seaming a cap.
For studies of stability under normal conditions, a first portion of these bottles were then placed in a first chamber thermostated at a temperature of 25° C. and at a relative humidity of 60%. These bottles were maintained upright and at rest without particular stirring for the periods indicated below.
Samples were collected at the periods indicated and then analyzed by high-performance liquid chromatography according to a conventional method in order to quantify the level of noncharacterized total impurities, expressed as a percentage by weight, relative to the quantities of oxaliplatin present in each of the samples.
This study was performed on groups of bottles having a useful capacity of 5 ml, 15 ml and 20 ml, respectively, filled as described above with aliquots of a stock solution at a concentration of 5 mg/ml, and then stored under the conditions mentioned above for a period of at least 10 months.
Samples were collected at periods of 1 month, and then 2.5 months, 4 months, 5.5 months, 7 months and 10 months, respectively, after bottling.
This study was performed as above, with the difference that the bottles were loaded with aliquots of a stock solution at a concentration of 7 mg/ml and samples were collected at the same periods.
This study was performed on three batches of bottles having the same useful capacity of 50 ml, filled as described above with aliquots of the same volume of a stock solution at a concentration of 2 mg/ml, and then stored under the conditions mentioned above for a period of 5 years. At the end of this period, samples were collected for analysis.

[3] = Stability study under accelerated conditions (40° C., 75% humidity); assay type: physicochemical; details: aqueous solution in the selected bottles and filling conditions, humidity 75%
Experimental: Finally, it will be noted that the applicant has carried out a study of stability under accelerated conditions intended to anticipate stabilities on a scale of 3 years. To this effect, bottles were placed in a chamber thermostated at a temperature of 40° C. and in an atmosphere having a humidity of 75%. Samples were regularly collected and then analyzed.

[4] = 5 mg/ml, 5 ml bottle (ratio 0.26)
[5] = 5 mg/ml, 15 ml bottle (ratio 0.20)
[6] = 5 mg/ml, 20 ml bottle (ratio 0.17)
[7] = deduced from curve of FIG. 1 (4 months), c=5 mg/ml
[8] = deduced from curve of FIG. 2 (4 months), printed c=5 mg/ml

Structure (SMILES): O=C1[O][Pt]2([NH][C@@H]3CCCC[C@H]3[NH]2)[O]C1=O [oxaliplatin, Oxaliplatin]
- degradation on preservation in flexible bags for infusion [1]: no degradation
- Level of impurity 5 years ([2]; batch 1): 1.47 % by weight
- Level of impurity 5 years ([2]; batch 2): 1.56 % by weight
- Level of impurity 5 years ([2]; batch 3): 1.55 % by weight
- Level of impurity 1 month ([2]; 5 mg/ml aqueous solution, bottle useful capacity 5 ml (surface area/volume ratio 0.26)): 2.34 % by weight
- Level of impurity 2.5 months [2, 4]: 2.55 % by weight
- Level of impurity 4 months [2, 4]: 2.89 % by weight
- Level of impurity 5.5 months [2, 4]: 2.70 % by weight
- Level of impurity 7 months [2, 4]: 3.19 % by weight
- Level of impurity 10 months [2, 4]: 3.64 % by weight
- Level of impurity 1 month [2, 5]: 1.15 % by weight
- Level of impurity 2.5 months [2, 5]: 1.16 % by weight
- Level of impurity 4 months [2, 5]: 1.23 % by weight
- Level of impurity 5.5 months [2, 5]: 1.50 % by weight
- Level of impurity 7 months [2, 5]: 1.56 % by weight
- Level of impurity 10 months [2, 5]: 1.59 % by weight
- Level of impurity 1 month [2, 6]: 1.06 % by weight
- Level of impurity 2.5 months [2, 6]: 1.11 % by weight
- Level of impurity 4 months [2, 6]: 1.13 % by weight
- Level of impurity 5.5 months [2, 6]: 1.38 % by weight
- Level of impurity 7 months [2, 6]: 1.42 % by weight
- Level of impurity 10 months [2, 6]: 1.45 % by weight
- Level of impurity 1 month ([2]; 7 mg/ml, 5 ml bottle): 1.87 % by weight
- Level of impurity 2.5 months ([2]; 7 mg/ml, 5 ml bottle): 2.09 % by weight
- Level of impurity 4 months ([2]; 7 mg/ml, 5 ml bottle): 2.33 % by weight
- Level of impurity 5.5 months ([2]; 7 mg/ml, 5 ml bottle): 2.56 % by weight
- Level of impurity 7 months ([2]; 7 mg/ml, 5 ml bottle): 2.75 % by weight
- Level of impurity 10 months ([2]; 7 mg/ml, 5 ml bottle): 2.98 % by weight
- Level of impurity 1 month ([2]; 7 mg/ml, 15 ml bottle): 0.96 % by weight
- Level of impurity 2.5 months ([2]; 7 mg/ml, 15 ml bottle): 1.03 % by weight
- Level of impurity 4 months ([2]; 7 mg/ml, 15 ml bottle): 1.12 % by weight
- Level of impurity 5.5 months ([2]; 7 mg/ml, 15 ml bottle): 1.19 % by weight
- Level of impurity 7 months ([2]; 7 mg/ml, 15 ml bottle): 1.23 % by weight
- Level of impurity 10 months ([2]; 7 mg/ml, 15 ml bottle): 1.30 % by weight
- Level of impurity 1 month ([2]; 7 mg/ml, 20 ml bottle): 0.70 % by weight
- Level of impurity 2.5 months ([2]; 7 mg/ml, 20 ml bottle): 0.81 % by weight
- Level of impurity 4 months ([2]; 7 mg/ml, 20 ml bottle): 0.97 % by weight
- Level of impurity 5.5 months ([2]; 7 mg/ml, 20 ml bottle): 1.04 % by weight
- Level of impurity 7 months ([2]; 7 mg/ml, 20 ml bottle): 1.07 % by weight
- Level of impurity 10 months ([2]; 7 mg/ml, 20 ml bottle): 1.11 % by weight
- R0, theoretical maximum surface area/volume ratio for which no impurity would be quantifiable [2, 7]: 0.10
- constant A of R=R0+A.c.I [2, 7]: 0.01 ml/(mg.m)
- R0, theoretical maximum surface area/volume ratio for which no impurity would be quantifiable [2, 8]: 0.11
- constant A of R=R0+A.c.I [2, 8]: 0.009 ml/(mg.m)
- period of storage suggested by accelerated stability study [3]: at least 36 months
